Experiments:
Assay type in all cases: functional
L1210 [1] = assay: Antitumor activity was assessed against L1210 tumors in B6D2F1 mouse by inoculation of 10e5 tumor cells through intravenous route and mean death of animals (treated/control) was reported at 100 mg/kg peroral dose; conditions: route oral
L1210 [2] = assay: Antitumor activity was assessed against L1210 tumors in B6D2F1 mouse by inoculation of 10e5 tumor cells through intravenous route and mean death of animals (treated/control) was reported at 200 mg/kg peroral dose; conditions: route oral
L1210 [3] = assay: Antitumor activity was assessed against L1210 tumors in B6D2F1 mouse by inoculation of 10e5 tumor cells through intravenous route and mean death of animals (treated/control) was reported at 50 mg/kg peroral dose; conditions: route oral
L1210 [4] = assay: Antitumor activity was assessed against L1210 tumors in B6D2F1 mouse by inoculation of 10e5 tumor cells through iv route and mean death of animals (treated/control) was reported at 20 mg/kg po dose
L1210 [5] = assay: Antitumor activity was assessed against L1210 tumors in B6D2F1 mouse by inoculation of 10e5 tumor cells through iv route and mean death of animals (treated/control) was reported at 40 mg/kg po dose
L1210 [6] = assay: Antitumor activity was assessed against L1210 tumors in B6D2F1 mouse by inoculation of 10e5 tumor cells through iv route and mean death of animals (treated/control) was reported at 10 mg/kg po dose
L1210 [7] = assay: Antitumor activity was assessed against L1210 tumors in B6D2F1 mouse by inoculation of 10e5 tumor cells through iv route and number of Survivors to duration was reported at 40 mg/kg po dose; 7/7
[8] = Antitumor activity was assessed against TLX5 tumors in CBA/CA mouse by inoculation of 2 x 10e5 tumor cells through sc route and mean death of animals (treated/control) was reported at 20 mg/kg dose; conditions: route subcutaneous
[9] = Antitumor activity was assessed against TLX5 tumors in CBA/CA mouse by inoculation of 2 x 10e5 tumor cells through sc route and mean death of animals (treated/control) was reported at 40 mg/kg dose; conditions: route subcutaneous
[10] = Antitumor activity was assessed against TLX5 tumors in CBA/CA mouse by inoculation of 2 x 10e5 tumor cells through sc route and mean death of animals (treated/control) was reported at 80 mg/kg dose; conditions: route subcutaneous
[11] = Antitumor activity was assessed against TLX5 tumors in CBA/CA mouse by inoculation of 2 x 10e5 tumor cells through sc route and number of survivors was reported at 20 mg/kg ip dose; 3/5; conditions: route subcutaneous
[12] = Antitumor activity was assessed against TLX5 tumors in CBA/CA mouse by inoculation of 2 x 10e5 tumor cells through sc route and number of survivors was reported at 40 mg/kg ip dose; 3/5; conditions: route subcutaneous
[13] = Antitumor activity was assessed against TLX5 tumors in CBA/CA mouse by inoculation of 2 x 10e5 tumor cells through sc route and mean death of animals (treated/control) was reported at 160 mg/kg dose; conditions: route subcutaneous
[14] = Antitumor activity was assessed against TLX5 tumors in CBA/CA mouse by inoculation of 2 x 10e5 tumor cells through sc route and mean death of animals (treated/control) was reported at 320 mg/kg dose; conditions: route subcutaneous
L1210 [15] = assay: Antitumor activity was assessed against L1210 tumors in B6D2F1 mouse by inoculation of 10e5 tumor cells through iv route and mean death of animals (treated/control) was reported at 80 mg/kg po dose
L1210 [16] = assay: Antitumor activity was assessed against L1210 tumors in B6D2F1 mouse by inoculation of 10e5 tumor cells through iv route and mean death of animals (treated/control) was reported at 160 mg/kg po dose
[17] = Antitumor activity was assessed against TLX5 tumors in CBA/CA mouse by inoculation of 2 x 10e5 tumor cells through sc route and number of survivors to duration was reported at 40 mg/kg ip dose; 2/5; conditions: route subcutaneous
[18] = Antitumor activity was assessed against TLX5 tumors in CBA/CA mouse by inoculation of 2 x 10e5 tumor cells through sc route and number of survivors to duration was reported at 80 mg/kg ip dose; 5/5; conditions: route subcutaneous

## O=c1n(CCCl)nnc2c(-c3ccccc3)ncn12
L1210 [1]
  T/C: 100%
L1210 [2]
  T/C: 100%
L1210 [3]
  T/C: 100%

## CN(C(=O)c1ncn2c(=O)n(CCCl)nnc12)c1ccccc1
L1210 [1]
  T/C: 100%
L1210 [2]
  T/C: 100%
L1210 [3]
  T/C: 100%

## CCc1nc(C(N)=O)c2nnn(CCCl)c(=O)n12
L1210 [4]
  T/C: 145%
L1210 [5]
  T/C: 212%
L1210 [6]
  T/C: 105%

## NC(=O)c1nc(C2CCCCC2)n2c(=O)n(CCCl)nnc12
L1210 [1]
  T/C: 86%
L1210 [2]
  T/C: 90%
L1210 [3]
  T/C: 94%

## CN(C)S(=O)(=O)c1ncn2c(=O)n(CCCl)nnc12
L1210 [7]
  Survivors: 7
L1210 [4]
  T/C: 222%
L1210 [5]
  T/C: >750%
L1210 [6]
  T/C: 152%
[8]
  T/C: >385%
[9]
  T/C: >381%
[10]
  T/C: 68%
[11]
  Survivors: 3
[12]
  Survivors: 3

## COc1ccc(CNS(=O)(=O)c2ncn3c(=O)n(CCCl)nnc23)cc1
[13]
  T/C: 123%
[8]
  T/C: 113%
[14]
  T/C: 109%
[10]
  T/C: 151%

## Cc1nc(C(N)=O)c2nnn(CCCl)c(=O)n12
L1210 [5]
  T/C: 180%
L1210 [15]
  T/C: 248%
L1210 [6]
  T/C: 128%
L1210 [16]
  T/C: 267%
[13]
  T/C: 80%
[8]
  T/C: 176%
[14]
  T/C: 66%
[9]
  T/C: >343%
[10]
  T/C: >550%
[17]
  Survivors: 2
[18]
  Survivors: 5

## NC(=O)c1nc(Cc2ccccc2)n2c(=O)n(CCCl)nnc12
L1210 [1]
  T/C: 114%
L1210 [2]
  T/C: 127%
L1210 [3]
  T/C: 105%

Reference: ChEMBL document CHEMBL1123898, “Antitumor imidazotetrazines. 14. Synthesis and antitumor activity of 6- and 8-substituted imidazo[5,1-d]-1,2,3,5-tetrazinones and 8-substituted pyrazolo[5,1-d]-1,2,3,5-tetrazinones” (1987)
